Assay results published in patent US9611295B2, “Treatment of IL-17 mediated disease by blocking SEFIR-SEFIR interactions” (THE CLEVELAND CLINIC FOUNDATION, priority 2011, dated 2017).

Tests used:
IL-17RA SEFIR domain = molecular target: T1, IL-17RA SEFIR domain (Homo sapiens, UniProt Q96F46); experiment: SPR binding of peptides to immobilized IL-17RA SEFIR domain; conditions: sensor-immobilized IL-17RA SEFIR, Biacore 3000
T1 construct: IL17RA-SEFIR, amino acid residues 351 to 616; 6xHis (N, cleaved yes); TEV recognition site (ENLYFQG) (N, cleaved yes); made in house
T1 sequence (Q96F46 351-616): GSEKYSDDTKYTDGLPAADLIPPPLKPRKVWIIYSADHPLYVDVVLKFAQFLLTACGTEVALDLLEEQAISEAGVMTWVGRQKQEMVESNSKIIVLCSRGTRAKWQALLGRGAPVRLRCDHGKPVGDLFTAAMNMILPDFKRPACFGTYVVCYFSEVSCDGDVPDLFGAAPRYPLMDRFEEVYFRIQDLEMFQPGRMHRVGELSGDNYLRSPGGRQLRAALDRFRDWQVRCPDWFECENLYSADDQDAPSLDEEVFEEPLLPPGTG
Excerpt: The Cins helix and the CC′ loop are distinct putative surface-exposed sequences in the SEFIR3 segment of Act1. To determine whether the Cins helix and the CC′ loop interacted with IL-17RA, surface plasmon resonance (SPR) was used to test peptides derived from Cins (SPKYKQDVEGAESQ) (SEQ ID NO: 19) and the CC′ loop (LDEDEHGLHTKY) (SEQ ID NO: 5) for their ability to bind to the IL-17RA SEFIR domain. As expected, the recombinant Act1 SEFIR domain bound to the sensor-immobilized SEFIR of IL-17RA.
Expression and purification of IL-17RA and mAct1-SEFIR proteins: The cDNA encoding a SEFIR domain-containing fragment of human IL17RA (IL17RA-SEFIR, amino acid residues 351 to 616) was subcloned into a modified pET-28 vector, with a N-terminal 6×His tag (SEQ ID NO: 18)and a tobacco etch virus protease (TEV) recognition site (ENLYFQG) (SEQ ID NO: 21 )). The IL17RA SEFIR domain was expressed and purified by double-Nickel-Nitrilotriacetic Acid (Ni-NTA) affinity methods as previously described. Deng et al., Acta Crystallogr D Biol Crystallogr 60:203-204 (2004). The His-tag was subsequently removed from the eluted fusion protein by rTEV, and IL17RA-SEFIR was further purified as flow-through material from a second subtracting Ni-NTA column. Size-exclusion chromatography on a superdex s200 HR high resolution column was used as a final step for purification. The cDNA encoding a SEFIR domain containing a fragment of mouse Act1 (mAct1-SEFIR, residues 391 to 537) was subcloned into a modified pET28b vector that expresses maltose-binding protein (MBP) with an N-terminal 6×His tag (SEQ ID NO: 18) and a C-terminal TEV recognition site. Recombinant mAct1-SEFIR was expressed and purified as previously described. Deng et al., Proc Natl Acad Sci USA 105:1499-1504 (2008). The His-tagged MBP moiety was cleaved from the fusion protein by rTEV after the first Ni-NTA column purification. Recombinant mAct1-SEFIR was subsequently collected as flow-through from a second subtracting Ni-NTA column.
SPR analysis: Binding of purified Act1 SEFIR domain or peptides to IL-17RA was conducted on a Biacore 3000. Purified IL-17RA SEFIR domain was immobilized on a CM5 sensor chip in 10 mM acetic acid (pH 4.5). Purified Act1 SEFIR domain or peptides were allowed to flow over the chip in a buffer of 10 mM Hepes (pH 7.4), 150 mM NaCl, and 0.005% surfactant P20. The chip was regenerated with 1 M NaCl. Binding KD values were determined by Biaevaluation software.

[1] = test system: IL-25-mediated expression of Il13; experiment: IL-25-mediated Il13 mRNA expression in MEFs, real-time RT-PCR; format: cell-based, mouse; conditions: peptides 200 μM for 24 hours, then IL-25 for 3 hours
Method: (§1) FIG. 4 provides data showing that a cell-permeable CC′ loop decoy peptide disrupts the interaction between Act1 and IL-17RA and inhibits IL-17R and IL-25R signaling. FIG. 4A provides sequences of Antennapedia homeodomain (Antp) (SEQ ID NO: 11)and decoy peptides (SEQ ID NOS 23-25 and 17, respectively, in order of appearance) with the Antp sequence underlined. FIG. 4B provides flow cytometry results based on experiments in which MEFs expressing IL-17RB were incubated for 2 or 24 hours with the indicated FITC-tagged peptides (200 μM) and were then analyzed by flow cytometry. […] The percentages of FITC-positive cells in the treated samples are shown. […] FIG. 4D provides Western blot results of experiments in which MEFs expressing IL-17RB were incubated with the indicated peptides (200 μM) for 24 hours after which they were treated with IL-17 or IL-25 and then analyzed by Western blotting with the indicated antibodies. […] The abundances of Cxcl1 and Il13 mRNAs were then measured by real-time RT-PCR. […]
(§2) Decoy peptides are based on surface-exposed regions of the primary sequence of a protein to mimic a putative interaction interface. […] These decoy peptides were also tagged at their C-termini with fluorescein isothiocyanate (FITC) to enable their cell-penetrating efficiency to be evaluated by flow cytometric sanalysis. […]

[2] = test system: IL-17-mediated expression of Cxcl1; experiment: IL-17-mediated Cxcl1 mRNA expression in MEFs, real-time RT-PCR; format: cell-based, mouse; conditions: peptides 200 μM for 24 hours, then IL-17 for 3 hours
Method: as §1, §2

[3] = test system: IL-25-dependent signaling; experiment: IL-25-dependent signaling in MEFs by Western blotting (pIκB, pJNK, pERK, pp38 MAPK); format: cell-based, mouse; conditions: MEFs expressing IL-17RB, peptides 200 μM, 24 hours
Method: FIG. 4 provides data showing that a cell-permeable CC′ loop decoy peptide disrupts the interaction between Act1 and IL-17RA and inhibits IL-17R and IL-25R signaling. FIG. 4A provides sequences of Antennapedia homeodomain (Antp) (SEQ ID NO: 11)and decoy peptides (SEQ ID NOS 23-25 and 17, respectively, in order of appearance) with the Antp sequence underlined. FIG. 4B provides flow cytometry results based on experiments in which MEFs expressing IL-17RB were incubated for 2 or 24 hours with the indicated FITC-tagged peptides (200 μM) and were then analyzed by flow cytometry. […] The percentages of FITC-positive cells in the treated samples are shown. FIG. 4C provides Western blot results of experiments in which HeLa cells were cotransfected with plasmids encoding FLAG-tagged mAct1 and V5-tagged IL-17RA and were cultured for 24 hours, after which they were incubated for 24 hours with the indicated peptides (200 μM). IL-17RA was immunoprecipitated from the samples with antibody against the V5 tag, and samples were then subjected to Western blotting analysis with the indicated antibodies. FIG. 4D provides Western blot results of experiments in which MEFs expressing IL-17RB were incubated with the indicated peptides (200 μM) for 24 hours after which they were treated with IL-17 or IL-25 and then analyzed by Western blotting with the indicated antibodies. FIG. 4E provides bar graphs showing the results of experiments in which MEFs expressing IL-17RB were incubated with the indicated peptides (200 μM) for 24 hours, after which they were treated with IL-17 or IL-25 for 3 hours. The abundances of Cxcl1 and Il13 mRNAs were then measured by real-time RT-PCR. […]
as §2

[4] = test system: IL-17-induced inflammation in mouse ear skin; experiment: IL-17-induced inflammation in mouse ear skin; format: in vivo; conditions: C57B1/6 mice, daily injection
Method: Ears from C57B1/6 mice (n=3 for each group) were injected daily with PBS, IL-17 with or without ASI. On day 7, ears were collected for staining with H&E and real-time analysis of gene expression.

[5] = test system: House Dust Mite (HDM)-induced Asthma; experiment: Murine model of House Dust Mite (HDM)-induced asthma; format: in vivo, mouse; conditions: day 6; about 100,000 cells/ml without peptide
Method: FIG. 11 provides a graph showing that the ASI peptide inhibits inflammation in a murine model of experimental House Dust Mite (HDM)-induced Asthma. The white blood cell count was about 100,000 cells/ml when IL-17 was used alone, but dropped to about 10,000 cells/ml when ASI peptide was used together with IL-17. […] Ears from C57B1/6 mice (n=3 for each group) were injected daily with PBS, IL-17 with or without ASI. On day 7, ears were collected for staining with H&E and real-time analysis of gene expression.

LDEDEHGLHTKY [CC′ loop peptide] was tested. Which “binding to the IL-17RA SEFIR domain (SPR)” value (“binding” below) (IL-17RA SEFIR domain) did it give?
Its value is “bound to the IL-17RA SEFIR”.

For “Act1 SEFIR domain BB′ loop peptide: cell-permeable decoy peptide: BB′ loop sequence of Act1 SEFIR domain fused to C-terminus of Antp (DRQIKIWFQNRRMKWKKEDRIRGID) [reference compound]”, which “inhibition of IL-25-mediated expression of Il13” value [1] is on record?
Its value is “no effect”.

What about the “inhibition of IL-17-mediated expression of Cxcl1” value [2] of the same molecule?
Its value is “no effect”.

What about the “IL-25-dependent signaling (pIκB, pJNK, pERK, pp38 MAPK)” value [3] of the same molecule?
The value was “but not the Act1 SEFIR domain BB′ loop peptide, partly attenuated”.

What does the source list for “ASI peptide: the CC′ loop decoy peptide (SEQ ID NO: 5) (LDEDEHGLHTKY)”?
epidermal thickness and inflammation of ear skin (H&E) ([4]; day 7): inhibits IL-17-induced inflammation; inflammatory gene expression in ear skin (bar graphs) ([4]; day 7, real-time analysis): counteracted the inflammatory results of IL-17; white blood cell count in BAL [5]: about 10,000 cells/ml

With “EDRIRGID (listed as Mus sp.) [peptide derived from the BB′ loop, reference compound]” as the molecule, how does the “binding” value (IL-17RA SEFIR domain) read?
Its value is “did not bind”.

For “SPKYKQDVEGAESQ [Cins peptide, reference compound]”, which “binding” value (IL-17RA SEFIR domain) is on record?
Its value is “but not the Cins peptide, bound to the IL-17RA SEFIR”.

B1: recombinant Act1 SEFIR domain: SEFIR domain containing fragment of mouse Act1, residues 391 to 537 (protein)
chain: RKVFITYSMDTAMEVVKFVNFLLVNGFQTAIDIFEDRIRGIDIIKWMERYLRDKTVMIIVAISPKYKQDVEGAESQLDEDEHGLHTKYIHRMMQIEFISQGSMNFRFIPVLFPNAKKEHVPTWLQNTHVYSWPKNKKNILLRLLREE
How did the “binding” value (IL-17RA SEFIR domain) turn out when B1 was run?
Its value is “bound”.
